Measured values reported in patent US6291532A, “Use of N-aryl-2-hydroxyalkylamides for stimulating or inducing hair growth and/or arresting hair loss” (L'Oreal, priority 1996, dated 2001).
Where two headings read alike, the source gives them in different places.

How the values were obtained:
[1] = system: potassium channels; test: IC50 of the compounds for their effect on the potassium channels; type: biochemical; conditions: for IC50: methods of Newgreen et al., Bray et al. and wickerden et al., concentration which decreases by 50% an induced pharmacological mechanism such as muscular contraction, read-out: IC50 K+ Channels; for opening effect for potassium channels (in words): summary in words of the table of Example 1
Procedure: (§1) The IC50 corresponds to the concentration which decreases by 50% either an induced pharmacological mechanism, such as muscular contraction,or the attachment of a molecule to its membrane receptor.
In order to determine the IC50 of the compounds for their effect on the potassium channels, they were tested according to the methods of Newgreen et al. (Br. J. Pharmacol., 1990, 100, 605-613), Bray et al. (Arch. Pharmacol., 1991, 344, 351-359) and wickerden et al. (Br. J. Pharmacol., 1991, 103, 1148-1152).
(§2) The values are given in μM

[2] = biological target: T1, androgen receptors (Rattus norvegicus, UniProt P15207); test: IC50 of the compounds for their effect on the androgen receptors; type: binding; conditions: for affinity for the androgen receptor (in words): summary in words of the table of Example 1
T1 construct: from tissue; host or cells: rat ventral prostate cytosol, inferred from the cited method
T1 sequence (P15207 1-902): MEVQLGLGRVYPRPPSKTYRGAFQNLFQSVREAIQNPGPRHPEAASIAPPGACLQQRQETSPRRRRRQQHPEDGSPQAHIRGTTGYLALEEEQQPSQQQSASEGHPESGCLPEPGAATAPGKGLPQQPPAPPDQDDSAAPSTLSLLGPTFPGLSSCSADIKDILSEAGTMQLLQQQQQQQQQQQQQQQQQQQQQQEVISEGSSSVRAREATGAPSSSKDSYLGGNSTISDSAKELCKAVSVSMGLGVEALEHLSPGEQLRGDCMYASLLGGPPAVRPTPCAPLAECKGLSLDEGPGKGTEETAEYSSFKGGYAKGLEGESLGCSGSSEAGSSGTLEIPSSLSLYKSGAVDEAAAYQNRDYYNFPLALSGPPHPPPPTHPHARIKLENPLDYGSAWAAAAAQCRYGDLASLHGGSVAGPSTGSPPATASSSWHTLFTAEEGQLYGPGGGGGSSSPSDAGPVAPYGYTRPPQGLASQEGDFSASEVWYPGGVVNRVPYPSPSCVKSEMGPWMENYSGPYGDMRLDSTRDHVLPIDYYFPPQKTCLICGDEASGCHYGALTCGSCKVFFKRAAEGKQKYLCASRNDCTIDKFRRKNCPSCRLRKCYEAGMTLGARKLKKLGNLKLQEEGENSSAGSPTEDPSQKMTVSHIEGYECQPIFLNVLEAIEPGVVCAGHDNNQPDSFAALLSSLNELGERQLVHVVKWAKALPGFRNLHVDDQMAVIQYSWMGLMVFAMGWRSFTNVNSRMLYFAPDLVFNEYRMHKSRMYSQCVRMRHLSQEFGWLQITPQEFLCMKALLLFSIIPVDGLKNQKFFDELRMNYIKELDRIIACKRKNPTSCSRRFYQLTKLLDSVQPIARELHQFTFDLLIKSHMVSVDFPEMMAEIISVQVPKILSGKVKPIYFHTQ
Procedure: as §1
In order to determine the IC50 of the compounds for their effect on the androgen receptors, they were tested according to the method of Schilling and Liao ("The Prostate", 1984, 5, 581-588).
as §2

[3] = method of Schilling and Liao, concentration which decreases by 50% the attachment of a molecule to its receptor, read-out: IC50 Androgen receptors

SMILES	IC50 [1] [nM]	opening effect for potassium channels (in words) [1]	IC50 [2] [nM]	affinity for the androgen receptor (in words) [2]	IC50 [2, 3] [nM]
CC(O)(C(=O)Nc1ccc(C#N)c(C(F)(F)F)c1)C(F)(F)F (stereo not shown) [A, N-(4-cyano-3-(trifluoromethyl)phenyl)-3,3,3-trifluoro-2-hydroxy-2-methylpropionamide]	500	excellent opening effect	1000	good affinity	–
CC(O)(C(=O)Nc1ccc(C#N)cc1)C(F)(F)F (stereo not shown) [G, N-(4-cyanophenyl)-3,3,3-trifluoro-2-hydroxy-2-methylpropionamide, reference compound]	10000	poor opening effect	–	poor affinity	> 10000
CC(O)(C(=O)Nc1ccc(C#N)c(Cl)c1)C(F)(F)F (stereo not shown) [B, N-(3-chloro-4-cyanophenyl)-3,3,3-trifluoro-2-hydroxy-2-methylpropionamide]	100	excellent opening effect	500	good affinity	–
CC(O)(C(=O)Nc1ccc(C#N)c(C#N)c1)C(F)(F)F (stereo not shown) [E, N-(3,4-dicyanophenyl)-3,3,3-trifluoro-2-hydroxy-2-methylpropionamide]	1000	excellent opening effect	10000	good affinity	–
CC(O)(C(=O)Nc1ccc([N+](=O)[O-])c(C(F)(F)F)c1)C(F)(F)F (stereo not shown) [F, N-(4-nitro-3-(trifluoromethyl)phenyl)-3,3,3-trifluoro-2-hydroxy-2-methylpropionamide, reference compound]	> 10000	poor opening effect	–	poor affinity	> 10000
CC(O)(C(=O)Nc1ccc(Cl)c(Cl)c1)C(F)(F)F (stereo not shown) [C, N-(3,4-dichlorophenyl)-3,3,3-trifluoro-2-hydroxy-2-methylpropionamide]	2000	excellent opening effect	–	good affinity	1000
CC(O)(C(=O)Nc1ccc(C#N)c(C(F)(F)F)c1)c1ccccc1 (stereo not shown) [D, N-(4-cyano-3-(trifluoromethyl)phenyl)-2-hydroxy-2-phenylpropionamide]	3000	excellent opening effect	3000	good affinity	–
